These results are taken from PMC11035696, “Prospective de novo drug design with deep interactome learning” (Nature Communications, 2024).

As usually defined, the Kd is the free concentration of one partner at which half of the binding sites on the other are occupied at equilibrium, for simple one-to-one binding.

Test [1] addresses T1, PPARγ LBD protein (Homo sapiens, UniProt P37231).
T1 construct: PPARγ LBD protein (30 μM, prepared as described previously[106]); made in house
The test can be described thus: Isothermal titration calorimetry (ITC). The test is classed as binding. On the procedure: (§1) Compounds 1–3 were characterized in a hybrid reporter gene assay for their agoniztic effect on human nuclear receptors PPARα/γ/δ, RXRα, FXRα, RARα in HEK293T cells. Compound 1 was tested in an isothermal titration calorimetry (ITC) assay to measure direct binding affinity to the ligand-binding domain of PPARγ. ADME properties were measured in standardized assays at Roche.
ITC experiments were conducted on an Affinity ITC instrument (TA Instruments, New Castle, DE) at 25 °C with a stirring rate of 75 rpm. PPARγ LBD protein (30 μM, prepared as described previously[106]) in buffer (20 mM Tris pH 7.5, 150 mM NaCl, 5% glycerol) containing 5% DMSO was titrated with the test compound (1) (100 μM in the same buffer containing 5% DMSO) in 21 injections (1 × 1μl and 20 × 5μl) with an injection interval of 120 s. The test compound was titrated into buffer, and the buffer was titrated to the PPARγ LBD proteins under otherwise identical conditions. The ITC results were analyzed using NanoAnalyze software (TA Instruments, New Castle, DE) with an independent binding model.
For orientation: ITC needs no label: the signal is the heat of the interaction.

Test [2] addresses T2, human PPARα (Homo sapiens, UniProt Q07869).
T2 construct: expressed in transfected cells; host or cells: HEK293T
T2 sequence (Q07869 239-466 limits assumed): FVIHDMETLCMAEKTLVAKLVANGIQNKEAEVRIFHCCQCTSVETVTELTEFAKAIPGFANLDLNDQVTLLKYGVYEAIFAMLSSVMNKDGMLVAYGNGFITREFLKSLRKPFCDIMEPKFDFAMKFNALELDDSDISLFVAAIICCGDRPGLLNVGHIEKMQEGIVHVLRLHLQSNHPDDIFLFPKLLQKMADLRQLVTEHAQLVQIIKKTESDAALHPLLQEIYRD
Description: Gal4-hybrid reporter gene assay, PPARα activation. Conditions: hybrid reporter gene assay, result in words. Type of test: cell-based. Here is the method: as §1
PPAR activation was determined in uniform Gal4-hybrid reporter gene assays for the PPARα, PPARγ and PPARδ isoforms in HEK293T cells (German Collection of Microorganisms and Cell Culture GmbH, DSMZ) which were transiently transfected with pFR-Luc (Stratagene, La Jolla, CA, USA; reporter) and pRL-SV40 (Promega, Madison, WI, USA; internal control) and one pFA-CMV-hPPAR-LBD[97] clone, coding for the hinge region and ligand binding domain of the canonical isoform of human PPARα, PPARγ, PPARδ or respectively. Cells were cultured in Dulbecco’s modified Eagle’s medium (DMEM), high glucose supplemented with 10% fetal calf serum (FCS), sodium pyruvate (1 mM), penicillin (100 U ⋅ ml^-1), and streptomycin (100 μg ⋅ ml^-1) at 37 °C and 5% CO2 and seeded in 96-well plates (3 × 10^4 cells per well). After 24 h, medium was changed to Opti-MEM without supplements and cells were transiently transfected using Lipofectamine LTX reagent (Invitrogen) according to the manufacturer’s protocol. Five hours after transfection, cells were incubated with the test compounds in Opti-MEM supplemented with penicillin (100 U ⋅ ml^-1), streptomycin (100 μg ⋅ ml^-1) and 0.1% DMSO for 16 h before luciferase activity was measured using the Dual-Glo Luciferase Assay System (Promega) according to the manufacturer’s protocol on a Tecan Spark luminometer (Tecan Deutschland GmbH, Germany). Firefly luminescence was divided by Renilla luminescence and multiplied by 1000 resulting in relative light units (RLU) to normalize for transfection efficiency and cell growth. Fold activation was obtained by dividing the mean RLU of a test compound by the mean RLU of the untreated control. All samples were tested in at least three biologically independent experiments in duplicates. For dose-response curve fitting and calculation of EC50 values, the equation “[Agonist] versus response (variable slope—four parameters)” was used in GraphPad Prism (version 7.00, GraphPad Software, La Jolla, CA, USA) with fold activation data. The reference agonizts GW7647 (PPARα)[98],[99], pioglitazone (PPARγ)[100],[101] and L165,041 (PPARδ)[102],[103] were used to validate the assays and to monitor assay performance. Nuclear receptor selectivity profiling was performed with corresponding pFA-CMV-hNR-LBD clones and suitable reference agonizts on RARα (pFA-CMV-hRARα-LBD[104], 1 μM tretinoin), LXRα (pFA-CMV-hLXRα-LBD[104], 1 μM TO901317) and RXRα (pFA-CMV-h RXRα-LBD[105], 1 μM Bexarotene).
In general terms: In a reporter assay the amount or activity of a reporter protein is the signal.

T1 sequence (P37231 238-503 limits assumed): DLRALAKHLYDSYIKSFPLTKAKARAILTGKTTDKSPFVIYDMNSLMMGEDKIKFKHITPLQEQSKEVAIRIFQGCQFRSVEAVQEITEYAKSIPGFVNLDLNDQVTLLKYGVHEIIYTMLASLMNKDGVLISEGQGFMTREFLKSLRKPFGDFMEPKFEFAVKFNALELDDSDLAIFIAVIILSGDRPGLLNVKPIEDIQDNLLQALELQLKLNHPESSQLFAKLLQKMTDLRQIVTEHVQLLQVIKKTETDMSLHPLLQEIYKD

As for `Cc1nnc(-c2ccc(OCCCOc3ccc(CCC(=O)O)c(F)c3)c(F)c2)s1` [Compound 1], the “molar ratio (ligand per protein)” value in test [1] is given as “one ligand per protein molecule”. The Kd in test [1] (25 °C, ligand binding domain of PPARγ, read-out: dissociation constant KD) was found to be 0.8 ± 0.1 µM.

As to `COc1ccc(Oc2ccc3ncn(CCOc4ccc(CCC(=O)O)cc4)c3c2)cc1` [Compound 2], in test [2], the “activity on PPARα” value is recorded as “no discernible impact”.
